How the values were obtained:
PPARα = target: T1, PPARα (Homo sapiens, UniProt Q07869); experiment: PPARα receptor radioligand binding assay (SPA); details: GST-PPARα-LBD fusion protein on SPA beads
T1 construct: PPARα (aa 167 to 469); made in house; host or cells: E. coli BL21 (pLysS)
T1 sequence (Q07869 167-468 limits assumed): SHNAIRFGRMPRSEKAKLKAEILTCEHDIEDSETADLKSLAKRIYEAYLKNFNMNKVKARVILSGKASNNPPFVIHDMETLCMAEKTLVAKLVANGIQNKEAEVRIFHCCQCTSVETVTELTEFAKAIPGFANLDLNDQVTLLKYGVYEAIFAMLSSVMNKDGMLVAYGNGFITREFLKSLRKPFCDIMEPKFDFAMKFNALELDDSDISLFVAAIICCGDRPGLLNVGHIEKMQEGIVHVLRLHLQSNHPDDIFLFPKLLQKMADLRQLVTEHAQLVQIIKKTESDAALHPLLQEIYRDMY
Excerpt: (§1) Background information on the performed assays can be found in: Nichols J S et al. “Development of a scintillation proximity assay for peroxisome proliferator-activated receptor gamma ligand binding domain”, (1998) Anal. Biochem. 257:112–119.
(§2) Full-length cDNA clones for humans PPARδ and PPARα and mouse PPARγ were obtained by RT-PCR from human adipose and mouse liver cRNA, respectively, cloned into plasmid vectors and verified by DNA sequencing. Bacterial and mammalian expression vectors were constructed to produce glutathione-s-transferase (GST) and Gal4 DNA binding domain proteins fused to the ligand binding domains (LBD) of PPARδ (aa 139 to 442), PPARγ (aa 174 to 476) and PPARα (aa 167 to 469). To accomplish this, the portions of the cloned sequences encoding the LBDs were amplified from the full-length clones by PCR and then subcloned into the plasmid vectors. Final clones were verified by DNA sequence analysis.
(§3) Induction, expression, and purification of GST-LBD fusion proteins were performed in E. coli strain BL21 (pLysS) cells by standard methods (Ref: Current Protocols in Molecular Biology, Wiley Press, edited by Ausubel et al.).
(§4) PPARα receptor binding was assayed in TKE50 (50 mM Tris-HCl, pH 8, 50 mM KCl, 2 mM EDTA, 0.1 mg/ml fatty acid-free BSA and 10 mM DTT). For each 96 well reaction an 140 ng equivalent of GST-PPARα-LBD fusion protein was bound to 10 μg SPA beads (PharmaciaAmersham) in a final volume of 50 μl by shaking. The resulting slurry was incubated for 1 h at RT and centrifuged for 2 min at 1300 g. The supernatant containing unbound protein was removed and the semidry pellet containing the receptor-coated beads was resolved in 50 μl of TKE. […] All binding assays were performed in 96 well plates and the amount of bound ligand measured on a Packard TopCount using OptiPlates (Packard). Nonspecific binding was determined in the presence of 10^−4 M unlabelled compound. […]

PPARγ = target: T2, PPARγ (Mus musculus, UniProt P37238); experiment: PPARγ receptor radioligand binding assay (SPA); details: GST-PPARγ-LBD fusion protein on SPA beads
T2 construct: PPARγ (aa 174 to 476); made in house; host or cells: E. coli BL21 (pLysS)
T2 sequence (P37238 174-475 isoform P37238-2): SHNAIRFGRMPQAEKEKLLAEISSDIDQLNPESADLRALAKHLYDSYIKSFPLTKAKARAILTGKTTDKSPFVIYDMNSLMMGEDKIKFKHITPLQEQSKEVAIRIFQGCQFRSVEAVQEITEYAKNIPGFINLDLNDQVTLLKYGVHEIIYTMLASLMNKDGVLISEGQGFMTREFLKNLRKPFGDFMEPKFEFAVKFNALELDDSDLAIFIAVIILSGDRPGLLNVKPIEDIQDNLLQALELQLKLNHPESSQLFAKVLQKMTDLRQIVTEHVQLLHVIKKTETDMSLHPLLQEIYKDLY
Excerpt: as §1, §2, §3
as §4, with “PPARγ receptor” for “PPARα receptor”, “reaction a” for “reaction an”, “of GST-PPARγ-LBD” for “of GST-PPARα-LBD”, “50 ul” for “50 μl”, “at 1300g.” for “at 1300 g.”

PPARδ = target: T3, PPARδ (Homo sapiens, UniProt Q03181); experiment: PPARδ receptor radioligand binding assay (SPA); details: GST-PPARδ-LBD fusion protein on SPA beads
T3 construct: PPARδ (aa 139 to 442); made in house; host or cells: E. coli BL21 (pLysS)
T3 sequence (Q03181 139-441 limits assumed): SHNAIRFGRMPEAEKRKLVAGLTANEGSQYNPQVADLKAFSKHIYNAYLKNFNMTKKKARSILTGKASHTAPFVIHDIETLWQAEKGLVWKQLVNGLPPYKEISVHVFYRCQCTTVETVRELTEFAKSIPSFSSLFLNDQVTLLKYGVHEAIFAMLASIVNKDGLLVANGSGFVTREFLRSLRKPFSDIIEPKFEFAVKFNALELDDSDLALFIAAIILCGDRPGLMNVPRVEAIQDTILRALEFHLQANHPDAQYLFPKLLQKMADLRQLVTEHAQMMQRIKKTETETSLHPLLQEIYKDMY
Excerpt: as §1, §2, §3
PPARδ receptor binding was assayed in HNM10 (50 mM Hepes, pH 7.4, 10 mM NaCl, 5 mM MgCl2, 0.15 mg/ml fatty acid-free BSA and 15 mM DTT). For each 96 well reaction a 500 ng equivalent of GST-PPARδ-LBD fusion protein and radioligand, e.g. 20000 dpm {2-methyl-4-[4-methyl-2-(4-trifluoromethyl-phenyl)-thiazol-5-yl-ditritiomethylsulfanyl]-phenoxy}-acetic acid, was bound to 10 μg SPA beads (PharmaciaAmersham) in a final volume of 50 μl by shaking. The resulting slurry was incubated for 1 h at RT and centrifuged for 2 min at 1300 g. […] Radioligand was added and the reaction incubated at RT for 1 h and scintillation proximity counting performed in the presence of test compounds was determined. All binding assays were performed in 96 well plates and the amount of bound ligand was measured on a Packard TopCount using OptiPlates (Packard). […]

| SMILES | IC50 (PPARα) [µM] | IC50 (PPARγ) [µM] | IC50 (PPARδ) [µM] | melting point [°C] |
| --- | --- | --- | --- | --- |
| Cc1cc(OC(C)c2ccc(-c3ccc(C(F)(F)F)cc3)nc2C)ccc1SCC(=O)O (racemic) [Example 20, [rac]-(2-Methyl-4-{1-[2-methyl-6-(4-trifluoromethyl-phenyl)-pyridin-3-yl]-ethoxy}-phenylsulfanyl)-acetic acid] | 0.454 | > 10 | 0.002 |  |
| Cc1cc(OCc2ccc(-c3cccc(C(F)(F)F)c3)nc2C)ccc1OC(C)(C)C(=O)O [Example 8, 2-Methyl-2-{2-methyl-4-[2-methyl-6-(3-trifluoromethyl-phenyl)-pyridin-3-ylmethoxy]-phenoxy}-propionic acid] | 0.013 | > 10 | 0.026 | 105 to 107 |
| Cc1cc(N(C)Cc2cnc(-c3ccc(C(F)(F)F)cc3)nc2C2CC2)ccc1OCC(=O)O [Example 27, (4-{[4-Cyclopropyl-2-(4-trifluoromethyl-phenyl)-pyrimidin-5-ylmethyl]-methyl-amino}-2-methyl-phenoxy)-acetic acid] | 0.289 | > 10 | 0.031 |  |
